Measurements as given in PubChem BioAssay AID179 (DTP/NCI, 2004).
pEC50, pIC50: −log10 of the molar value. Values joined by “and” are separate entries in the source; they are usually repeats but may differ in a detail not shown here. Equal entries are not always repeated. Active and inactive are the calls of the source.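 How the source made its calls: active means compounds giving half or more protection of infected cells from virus-caused growth loss, again on retest; inactive means the rest.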 Where a SMILES comes first, the peptide text is derived from it.

Test system: CEM cells HIV-1 protection, formazan growth assay
Assay: NCI AIDS Antiviral Assay
Settings: for pIC50: measured here: growth of uninfected CEM cells
Summary of the method: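 Category rules: moderately active means at least 50% protection on retest, and confirmed active means 100% protection reproducibly. The underlying data came from a formazan growth assay in HIV-1-infected CEM cells.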

SMILES | pEC50 | pIC50 | outcome
N#CC(C(=N/O)/C(=N/O)C(C#N)c1ccc(Cl)cc1)c1ccc(Cl)cc1 (configuration not stated) | < 3.33 | 3.75 | –
N#CC(NC12CC3CC(CC(C3)C1)C2)c1ccccc1C(F)(F)F (configuration not stated) | < 4.11 | < 4.11 | –
O=C(N/C(=C\c1ccc(/C=C(\NC(=O)c2ccccc2)c2nc3cc(Cl)ccc3[nH]2)cc1)c1nc2cc(Cl)ccc2[nH]1)c1ccccc1 | – | – | inactive
N=C1SC23CCCN2C(=O)C2(CCCN2C3=O)S1 | < 3.05 | 3.76 | –
COc1ccc2ccnc(Cc3ccc(OCc4ccccc4)c(OC)c3)c2c1 | – | – | inactive
CC(C)=NNC(=O)CC(=O)N(C(=O)c1ccccc1Cl)c1ccc(C)cc1 | < 3.33 | < 3.33 | –
O=C1C2=C(c3ccccc31)C(c1ccc(Cl)cc1)NC(=S)N2 (configuration not stated) | < 4.24 | 4.53 | –
O=[N+]([O-])c1ccc(C2CC(c3ccc(NCc4nc5ccccc5[nH]4)cc3)=NO2)cc1 (configuration not stated) | < 5.04 | < 5.04 | –
CC1OC(O[C@@H]2C=C3CC[C@@H]4[C@H](CC[C@]5(C)[C@@H](c6ccc(=O)oc6)CC[C@]45O)[C@@]3(C)CC2)C(O)C(O)C1O (some centres not stated) | < 5.70 | 8.33 | –
COc1cc2c(c(OC)c1OC)C(=O)[C@@H]1[C@H]2N1C(N)=O | < 3.70 | 5.38 | –
CCN(CC)CCCNc1c2cc(OC)ccc2nc2cccc([N+](=O)[O-])c12 | < 5.70 | 7.39 | –
Nc1nc(N)c2nnsc2n1 | < 3.70 | < 3.70 | –
COc1cc2c(cc1OC)C(O)[C@H](Br)C(C)(C)O2 (some centres not stated) | < 3.80 | 4.05 | –
Cc1ccc(S(=O)(=O)N2/C(=C/c3ccccc3)C(=O)c3ccccc3-c3ccccc32)cc1 | < 4.94 | < 4.94 | –
O=c1ccn2c(n1)OC1C(O)C(CO)OC12 (configuration not stated) | < 3.70 | < 3.70 | –
CN(C)C1=CC(=O)C(=O)c2cnc(N(C)C)cc21 | – | – | inactive
Cc1ccc(NP(=O)(Oc2ccccc2)N(CCCl)CCCl)cc1 (configuration not stated) | < 4.45 | 4.80 | –
Cc1cn(C2CC(NO)C(CO)O2)c(=O)[nH]c1=O (configuration not stated) | 4.41 | 3.75 | –
O=CC(NC(=O)N(CCCl)N=O)C(O)C(O)C(O)CO (configuration not stated) | < 3.40 | < 3.40 | –
Cc1nc2cc(C)[nH]c(=O)n2n1 | < 2.82 | < 2.82 | –
Cn1c(-c2ccccc2)cc(-c2cccs2)c1-c1ccsc1 | < 3.70 | 3.74 | –

SMILES | pEC50 | pIC50 | outcome
Cn1c2ccccc2c2nc3ccccc3c(Cl)c21 | < 3.70 | 3.87 | –
Cc1cn(C2C/C(=C\C#N)C(CO[Si](C)(C)C(C)(C)C)O2)c(=O)[nH]c1=O (configuration not stated) | < 3.70 | 3.74 | –
N#Cc1ccccc1NC1OCC(O)C(O)C1O (configuration not stated) | – | – | inactive
Cc1c(NC(=O)C(=O)N=NC(=O)c2ccncc2)c(O)c2ccccc2c1O | – | – | inactive
CCC1(OC(=O)CN2CCN(CCO)CC2)C(=O)OCc2c1cc1n(c2=O)Cc2cc3ccccc3nc2-1 (configuration not stated) | < 5.00 | 7.04 | –
COc1ccc(C2Oc3cc(OC)c(OC)cc3C2CCl)cc1OC (configuration not stated) | < 3.70 | 3.97 | –
CCOc1ccc(N=Nc2ccc(N)cc2N)cc1 | < 3.70 | 3.97 | –
CC(=O)NC(CO)C(=O)NC(Cc1ccc(O)cc1)C(=O)NCC(N)=O (stereo not drawn) (Ac-Ser-Tyr-Gly-NH2; configuration not given here) | < 3.70 | < 3.70 | –
CCN(CC)c1ccc2cc(-c3nc4ccccc4c(=O)[nH]3)c(=N)oc2c1 | < 4.00 | < 4.00 | –
CC(C)c1nc2cc(C(F)(F)F)ccc2[nH]c1=O | < 3.70 | 3.92 | –
CN1C[C@H]2[C@@H](C1=O)[C@H](c1ccccc1)ON2C | < 3.70 | < 3.70 | –
CC1(C)[C@@H]2C[C@H]1C(Cc1ccccc1C[C@H]1c3cc(-c4ccccn4)ncc3[C@H]3C[C@@H]1C3(C)C)c1cc(-c3ccccn3)ncc12 (some centres not stated) | < 3.70 | 6.50 | –
CC(N)(CC(O)(C(F)(F)Cl)C(F)(F)Cl)C(=O)O (configuration not stated) | < 3.70 | < 3.70 | –
COc1ccc(P2(=S)OCCOP(=S)(c3ccc(OC)cc3)S2)cc1 (configuration not stated) | < 3.93 | 5.40 | –
CCN(CC)CCN1C(=O)CN=C(c2ccccn2)c2cc(Cl)ccc21 | < 3.35 | 3.62 | –
NC(=O)N/N=C\CC(O)(C(F)(F)Cl)C(F)(F)Cl | < 3.70 | < 3.70 | –
O=[N+]([O-])c1cc2c(cc1O)[nH]c1cccc([N+](=O)[O-])c12 | < 4.86 | < 4.86 | –
CC(C)C1CO[C@]2(C)CCC(=O)N12 (some centres not stated) | < 2.87 | < 2.87 | –
OCc1ccc2c(c1)CC1(C2)Cc2cc3c(cc2C1O)CCC3 (configuration not stated) | < 3.70 | 5.74 | –
O=C(/C=C/c1cccc(Br)c1)c1cccs1 | – | – | inactive
[N-]=[N+]=NCc1cccc(Nc2cc(=O)[nH]c(=O)[nH]2)c1 | 4.31 | < 3.70 | –

SMILES | pEC50 | pIC50 | outcome
CCCCCCCCCCCCCCCCCCOCC(O)CO (configuration not stated) | < 5.52 | < 5.52 | –
CC(NC(=O)C(CCCCN)NC(=O)C(N)CC(=O)O)C(=O)NC(CO)C(=O)NC(Cc1ccc(O)cc1)C(=O)NC(CO)C(=O)NC(C(=O)NC(CC(N)=O)C(=O)NC(Cc1cnc[nH]1)C(=O)O)C(C)O (configuration not stated) (H-DKASYSTNH-OH; configuration not given here) | < 4.31 | < 4.31 | –
CCOC(=O)CCC(NC(=O)OCc1ccccc1)C(=O)NC(CCC(=O)OCC)C(=O)NC(CCC(=O)OCC)C(=O)NC(CCC(=O)OCC)C(=O)NC(CCC(=O)OCC)C(=O)NC(CCC(=O)OCC)C(=O)NC(CCC(=O)OCC)C(=O)NC(CCC(=O)OCC)C(=O)NC(CCC(=O)OCC)C(=O)NC(CCC(=O)OCC)C(=O)NC(CCC(=O)OCC)C(=O)NC(CCC(=O)OCC)C(=O)OCC (configuration not stated) | – | – | inactive
COC1/C=C/OC2(C)Oc3c(C)c(O)c4c(O)c(c(/C=N/Nc5ccc([N+](=O)[O-])cc5[N+](=O)[O-])c(O)c4c3C2=O)NC(=O)C(C)=C/C=C/C(C)C(O)C(C)C(O)C(C)C(OC(C)=O)C1C (configuration not stated) | < 3.70 | 5.15 | –
Cc1c(Cl)cccc1NC(=O)CC1Sc2ccccc2NC1=O (configuration not stated) | < 4.56 | < 4.56 and 4.81 | –
CCOC(=O)c1c(C)[nH]c(C(=O)C(N=O)C(=O)OCC)c1C (configuration not stated) | < 3.70 | < 3.70 | –
O=C1CC(NC(=O)C(F)(F)F)c2c1csc2Br (configuration not stated) | < 3.70 | 3.94 | –
OCC(O)C(O)C(O)c1nn(-c2ccccc2)c2nc3ccc(Cl)cc3nc12 (configuration not stated) | < 3.95 | < 3.95 | –
Cc1ccc2c(c1)N=Cc1ccccc1O2 | < 3.76 | 4.97 | –
CC[N+]1(C)CCC(O)(c2ccc(C)cc2)C(C(=O)c2ccc(C)cc2)C1 (configuration not stated) | < 3.70 | – | –
N#Cc1c2c(c(N)oc1=O)C(c1ccccc1)CC(=O)N2 (configuration not stated) | < 3.70 | < 3.70 | –
CC(C)(C)N=c1n(C(C)(C)C)oc(=O)n1C(C)(C)C | < 3.82 | 3.87 | –
CC(=O)ON1C(=O)c2cccc3cccc(c23)C1=O | < 3.70 | 4.73 | –
COc1cc(/C=C2/CCS(=O)(=O)c3ccc(C)cc3C2=O)cc(OC)c1OC | < 3.70 | 5.43 | –
CCN(CC)CCC(=O)/C=C/c1ccc(Cl)c(Cl)c1 | < 3.70 | 5.29 | –
O=C1CC2(CCN(Cc3ccccc3)CC2)CC(=O)N1 | < 3.70 | < 3.70 | –
S=C(Cc1ccc2c(c1)Sc1ccccc1O2)N1CCOCC1 | < 3.70 | 4.56 | –
C[N+]12CCCCC1C(CN1C(=O)c3ccccc3C1=O)CCC2 (configuration not stated) | 4.23 | < 3.70 | –
Cc1ccnc2n[nH]nc12 | < 2.73 | 3.43 | –
O=C1/C(=C/c2ccc(Cl)cc2)Cc2ccccc21 | < 5.25 | < 5.25 | –
CCn1c2ccc(C(=O)CCCN3CCCCC3)cc2c2cc(C(=O)CCCN3CCCCC3)ccc21 | < 4.36 | 6.64 | –

SMILES | pEC50 | pIC50 | outcome
CC1(C)O[C@@H](CP(c2cccc3ccccc23)c2cccc3ccccc23)[C@H](CP(c2cccc3ccccc23)c2cccc3ccccc23)O1 | < 3.70 | < 3.70 | –
Cc1cc(C)c(NC(=O)c2ccccc2)c(=O)o1 | < 3.70 | < 3.70 | –
CCCCC/C=C\CCC/C=C\CCCCCCOP(=O)(O)OCCC=C(c1cc(Cl)c(O)c(C(=O)O)c1)c1cc(Cl)c(O)c(C(=O)O)c1 | < 3.90 | 4.08 | –
COc1ccc(C2=C(N)c3c(OC)cccc3C2=O)cc1 | < 3.70 | < 3.70 | –
CC(Oc1ccccc1)C(=O)NN (configuration not stated) | < 3.70 | < 3.70 | –
CCC1c2ccccc2[C@H]2C(c3ccccc3)=NN(c3ccccc3)[C@H]2N1CC (some centres not stated) | < 3.70 | 4.25 | –
Cc1cc(NS(=O)(=O)c2ccc(Nc3c4ccccc4nc4ccc(C(=O)Nc5ccc(S(N)(=O)=O)cc5)cc34)cc2)no1 | < 3.70 | 3.96 | –
N=C1N(/N=C/c2ccccn2)C(=Nc2ccccc2)C(=S)N1c1ccccc1 | < 3.70 | 5.29 | –
CC(=O)NC1CC(C(C)(C)NC(C)=O)CC=C1C (configuration not stated) | < 3.57 | < 3.57 | –
[O-]/[N+]1=[N+](\[O-])c2ccccc2CCCc2ccccc21 | < 3.57 | < 3.57 | –
Nc1nnc2nc(CC(=O)/C=C/c3ccccc3)c(=O)[nH]n12 | < 3.77 | < 3.77 | –
O=C(NCCCCCCNC(=O)n1cc(F)c(=O)[nH]c1=O)NCCCOCCOCCOCCOCCOCCOCCOCCOCCOCCOCCOCCOCCOCCOCCOCCOCCOCCOCCOCCOCCOCCCNC(=O)C(O)C(O)C(O)C(O)CO (configuration not stated) | – | – | inactive
O=c1nc2c(c(-c3ccc(F)cc3)[nH]1)COC/C2=C\c1ccc(F)cc1 | – | – | inactive
CCCCCCCCCCCCCCCCOP(=O)(O)OP(=O)(O)OCC1OC(n2ccc(N)nc2=O)CC1O (configuration not stated) | < 4.00 | < 4.00 | –
COc1cc(COC(=O)N(C)[C@@H](Cc2ccccc2)C(=O)O)c([N+](=O)[O-])cc1OC | < 3.22 | 3.52 | –
COc1ccc(S(=O)(=O)n2c3c(c4ccccc42)[C@@H]2[C@@H](CCCN2C(=O)CS(=O)c2ccc(C)cc2)[C@H](Cl)C3)cc1 (some centres not stated) | < 3.70 | < 3.70 | –
O=C1C(=Cc2cccc(Cl)c2)N=C(c2ccccc2)N1n1c(-c2ccccc2)nc2ccccc2c1=O | < 3.70 | 4.45 | –
CCCCCCCCCCCCCCCC/C(C(=O)OC)=C(/O)C(=O)OCC | < 5.07 | < 5.07 | –
